SMILES strings stand for the structures. Active and inactive are the calls of the source. The calls are words filed in the database; no cut-off is given here.

For one data set, the system named is A549. In words: Cytotoxicity against human A549 cells assessed as reduction in cell viability up to 1600 uM after 16 hrs by MTT assay. In kind it is functional, cell-based.
The subject of a further data set is HeLa S3. The data set can be described thus: Cytotoxicity against human HeLaS3 cells assessed as reduction in cell viability up to 1600 uM after 16 hrs by MTT assay. In kind it is functional, cell-based. Background: Tetrazolium dyes change colour on reduction, which living cells bring about.
Data set [1] can be described thus: Drug uptake in human A549 cells at 30 uM after 7 to 24 hrs under normoxic condition by ICP-MS analysis. It counts as ADME, cell-based. As to conditions: a549, 30 µM.
The nature of data set [2]: Drug uptake in human HeLaS3 cells at 30 uM after 7 to 24 hrs under normoxic condition by ICP-MS analysis. To be noted: hela s3, 30 µM. In kind it is ADME, cell-based.
In data set [3] the test system is hexokinase. In words: (§1) Substrate activity at hexokinase (unknown origin) assessed as compound phosphorylation after 1 days in presence of ATP by 31-P NMR spectroscopic analysis. In kind it is ADME. As to conditions: human, hexokinase (isolated enzyme); read-out: Activity.
A short description of data set [4]: Drug uptake in human HeLaS3 cells at 30 uM after 7 to 24 hrs under hypoxic condition by ICP-MS analysis. It counts as ADME, cell-based. As to conditions: hela s3, 30 µM.
The nature of data set [5]: Drug uptake in human A549 cells at 30 uM after 7 to 24 hrs under hypoxic condition by ICP-MS analysis. In kind it is ADME, cell-based. As to conditions: a549, 30 µM.
Data set [6] in a line: Drug uptake in human HeLaS3 cells assessed per cell at 30 uM after 7 hrs under normoxic condition by ICP-MS analysis. In kind it is ADME, cell-based. To be noted: hela s3, 7 h.
Data set [7] in a line: Drug uptake in human HeLaS3 cells assessed per cell at 30 uM after 7 hrs under hypoxic condition by ICP-MS analysis. In kind it is ADME, cell-based. To be noted: hela s3, 7 h.
A short description of data set [8]: as §1. It counts as ADME. To be noted: human, 24 h.
Data set [9] has as its system hexokinase. The data set can be described thus: Substrate activity at hexokinase (unknown origin) assessed as compound phosphorylation after 5 days in presence of ATP by 31-P NMR spectroscopic analysis. In kind it is ADME. To be noted: human, hexokinase (isolated enzyme); read-out: Activity.

As for `OC[C@H]1OC[C@H](B2OCCCO2)[C@@H](O)[C@@H]1O`, the result in the data set with A549 and in the data set on HeLa S3 was Active. In addition, the Drug uptake result in [1] and in data set [2] was “Active” throughout.
On to `OC[C@H]1OC(O)[C@H](O)[C@@H](O)[C@@H]1O` (stereo partly drawn) [DEXTROSE], for which the metabolised at 24 h in the data set with hexokinase [3] turned out to be 97%.
As to `OC[C@H]1OC[C@H](B2OC3(CCCCC3)C3(CCCCC3)O2)[C@@H](O)[C@@H]1O`, the outcome in the data set with A549 and in the data set on HeLa S3 was Active. Moreover, the Drug uptake result in data set [1], in data set [2], in data set [4] and in [5] was “Active” throughout.
Take `CC1CC(C)OB([C@H]2CO[C@H](CO)[C@@H](O)[C@@H]2O)O1` (stereo partly drawn): the outcome in the data set with A549 and with HeLa S3 was Active. Further, the Drug uptake result in data set [1] and in [2] was “Active” in each case.
Take `N[C@@H](Cc1ccc(B(O)O)cc1)C(=O)O`: the outcome in the data set with A549 and in the data set on HeLa S3 was Active. In addition, the Drug uptake result in [1], in data set [2], in data set [4] and in data set [5] was “Active” in each case.
For `OC[C@H]1OC[C@H](B(O)O)[C@@H](O)[C@@H]1O`, the result in the data set with A549 and in the data set on HeLa S3 was Active. For the same compound, the Drug uptake entry in [1] is listed as “Active”; in [2], “Active”; in data set [6], 0.3 fmol; in data set [7], 0.4 fmol; in [4], “Active”; in [5] it was “Active”. Further, the result in data set [8] was Active.
`CC1(C)OB([C@H]2CO[C@H](CO)[C@@H](O)[C@@H]2O)OC1(C)C`: the outcome with A549 and in the data set on HeLa S3 was Active. Further, the Drug uptake result in data set [1], in data set [2], in data set [4] and in data set [5] was “Active” throughout. Also, the Activity result in data set [8] is on record as “Not Active”.
`c1ccc(B2OC3(CCCCC3)C3(CCCCC3)O2)c(CN2CCNCCNCCNCC2)c1`: the Drug uptake result in data set [1], in data set [2], in data set [4] and in [5] was “Active” each time.
On to `O=P(O)(O)OC[C@H]1OC(O)[C@H](O)[C@@H](O)[C@@H]1O` (stereo partly drawn), for which the result in data set [8] was Active. Moreover, the metabolised at 120 h in the data set on hexokinase [9] is 19%.
